Laboratory results published in the supplement of paper PMC10883282.

Key:
Assay in all cases: relative viability vs DMSO control (72 h) (fraction); higher = more viable cells
A204 = tested on: A204
Method in brief: (§1)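 Relative viability was measured with ATPLite and expressed as percent growth, averaged across up to triplicate wells. Sarcoma cell lines had been seeded in 384-well plates to reach 80–90% confluence, dosed after 24 h, and incubated 72 h at 37 °C, 5% CO2. All data were rescaled on a scale where 1 is full and 0 is none.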

HS729 = tested on: HS729
Method in brief: as §1

KHOS-240S = tested on: KHOS-240S
Method in brief: as §1

RD = tested on: RD
Method in brief: as §1

SK-ES-1 = tested on: SK-ES-1
Method in brief: as §1

SW982 = tested on: SW982
Method in brief: as §1

SK-LMS-1 = tested on: SK-LMS-1
Method in brief: as §1

SW872 = tested on: SW872
Method in brief: as §1

SW1353 = tested on: SW1353
Method in brief: as §1

G401 = tested on: G401
Method in brief: as §1

MES-SA = tested on: MES-SA
Method in brief: as §1

VA-ES-BJ = tested on: VA-ES-BJ
Method in brief: as §1

CC(=O)c1c(C)c2cnc(Nc3ccc(N4CCNCC4)cn3)nc2n(C2CCCC2)c1=O [Palbociclib]
Settings	relative viability
A204, 0.00017 µM	1.05
A204, 0.00051 µM	1.07
A204, 0.00152 µM	1.07
A204, 0.00457 µM	1.08
A204, 0.01372 µM	1.03
A204, 0.04115 µM	0.987
A204, 0.1235 µM	0.808
A204, 0.3704 µM	0.777
A204, 1.111 µM	0.649
A204, 3.333 µM	0.556
A204, 10 µM	0.39
G401, 0.00017 µM	1.04
G401, 0.00051 µM	1.03
G401, 0.00152 µM	1.016
G401, 0.00457 µM	0.989
G401, 0.01372 µM	0.962
G401, 0.04115 µM	0.938
G401, 0.1235 µM	0.882
G401, 0.3704 µM	0.856
G401, 1.111 µM	0.833
G401, 3.333 µM	0.742
G401, 10 µM	0.293
HS729, 0.00017 µM	1.05
HS729, 0.00051 µM	1.02
HS729, 0.00152 µM	1.06
HS729, 0.00457 µM	1.01
HS729, 0.01372 µM	1.05
HS729, 0.04115 µM	0.965
HS729, 0.1235 µM	0.987
HS729, 0.3704 µM	0.984
HS729, 1.111 µM	0.844
HS729, 3.333 µM	0.849
HS729, 10 µM	0.933
KHOS-240S, 0.00017 µM	1.07
KHOS-240S, 0.00051 µM	1.07
KHOS-240S, 0.00152 µM	1.08
KHOS-240S, 0.00457 µM	1.07
KHOS-240S, 0.01372 µM	1.07
KHOS-240S, 0.04115 µM	1.01
KHOS-240S, 0.1235 µM	0.945
KHOS-240S, 0.3704 µM	0.843
KHOS-240S, 1.111 µM	0.734
KHOS-240S, 3.333 µM	0.681
KHOS-240S, 10 µM	0.607
MES-SA, 0.00017 µM	0.965
MES-SA, 0.00051 µM	0.977
MES-SA, 0.00152 µM	0.975
MES-SA, 0.00457 µM	0.936
MES-SA, 0.01372 µM	0.9398
MES-SA, 0.04115 µM	0.852
MES-SA, 0.1235 µM	0.782
MES-SA, 0.3704 µM	0.678
MES-SA, 1.111 µM	0.641
MES-SA, 3.333 µM	0.521
MES-SA, 10 µM	0.366
RD, 0.00017 µM	1.03
RD, 0.00051 µM	1.08
RD, 0.00152 µM	1.11
RD, 0.00457 µM	1.09
RD, 0.01372 µM	1.08
RD, 0.04115 µM	1.09
RD, 0.1235 µM	1.05
RD, 0.3704 µM	1.01
RD, 1.111 µM	0.968
RD, 3.333 µM	0.905
RD, 10 µM	0.276
SK-ES-1, 0.00017 µM	1
SK-ES-1, 0.00051 µM	1.07
SK-ES-1, 0.00152 µM	1.03
SK-ES-1, 0.00457 µM	1.02
SK-ES-1, 0.01372 µM	0.9868
SK-ES-1, 0.04115 µM	0.865
SK-ES-1, 0.1235 µM	0.674
SK-ES-1, 0.3704 µM	0.512
SK-ES-1, 1.111 µM	0.467
SK-ES-1, 3.333 µM	0.407
SK-ES-1, 10 µM	0.241
SK-LMS-1, 0.00017 µM	1.05
SK-LMS-1, 0.00051 µM	1.04
SK-LMS-1, 0.00152 µM	1.08
SK-LMS-1, 0.00457 µM	1.05
SK-LMS-1, 0.01372 µM	1.06
SK-LMS-1, 0.04115 µM	0.97
SK-LMS-1, 0.1235 µM	0.998
SK-LMS-1, 0.3704 µM	0.961
SK-LMS-1, 1.111 µM	1
SK-LMS-1, 3.333 µM	1.06
SK-LMS-1, 10 µM	0.798
SW872, 0.00017 µM	1.11
SW872, 0.00051 µM	1.1
SW872, 0.00152 µM	1.07
SW872, 0.00457 µM	1.09
SW872, 0.01372 µM	1.07
SW872, 0.04115 µM	1.03
SW872, 0.1235 µM	0.968
SW872, 0.3704 µM	0.884
SW872, 1.111 µM	0.83
SW872, 3.333 µM	0.78
SW872, 10 µM	0.726
SW982, 0.00017 µM	1.03
SW982, 0.00051 µM	1.08
SW982, 0.00152 µM	1.06
SW982, 0.00457 µM	1.05
SW982, 0.01372 µM	1.01
SW982, 0.04115 µM	0.936
SW982, 0.1235 µM	0.845
SW982, 0.3704 µM	0.737
SW982, 1.111 µM	0.6424
SW982, 3.333 µM	0.487
SW982, 10 µM	0.222
SW1353, 0.00017 µM	1.05
SW1353, 0.00051 µM	1.06
SW1353, 0.00152 µM	1.05
SW1353, 0.00457 µM	1.04
SW1353, 0.01372 µM	1.01
SW1353, 0.04115 µM	0.955
SW1353, 0.1235 µM	0.9442
SW1353, 0.3704 µM	0.9
SW1353, 1.111 µM	0.859
SW1353, 3.333 µM	0.87
SW1353, 10 µM	0.425
VA-ES-BJ, 0.00017 µM	1.1
VA-ES-BJ, 0.00051 µM	1.1
VA-ES-BJ, 0.00152 µM	1.081
VA-ES-BJ, 0.00457 µM	1.08
VA-ES-BJ, 0.01372 µM	0.99
VA-ES-BJ, 0.04115 µM	0.9367
VA-ES-BJ, 0.1235 µM	0.807
VA-ES-BJ, 0.3704 µM	0.666
VA-ES-BJ, 1.111 µM	0.584
VA-ES-BJ, 3.333 µM	0.547
VA-ES-BJ, 10 µM	0.499

CN(C)C(=O)c1cc2cnc(Nc3ccc(N4CCNCC4)cn3)nc2n1C1CCCC1 [Ribociclib]
Settings	relative viability
A204, 0.00017 µM	1.07
A204, 0.00051 µM	1.09
A204, 0.00152 µM	1.08
A204, 0.00457 µM	1.09
A204, 0.01372 µM	1.05
A204, 0.04115 µM	1.05
A204, 0.1235 µM	0.967
A204, 0.3704 µM	0.907
A204, 1.111 µM	0.921
A204, 3.333 µM	0.795
A204, 10 µM	0.639
G401, 0.00017 µM	0.987
G401, 0.00051 µM	0.968
G401, 0.00152 µM	1.02
G401, 0.00457 µM	0.983
G401, 0.01372 µM	0.97
G401, 0.04115 µM	0.899
G401, 0.1235 µM	0.898
G401, 0.3704 µM	0.886
G401, 1.111 µM	0.846
G401, 3.333 µM	0.794
G401, 10 µM	0.774
HS729, 0.00017 µM	0.88
HS729, 0.00051 µM	0.877
HS729, 0.00152 µM	0.878
HS729, 0.00457 µM	0.893
HS729, 0.01372 µM	0.905
HS729, 0.04115 µM	0.915
HS729, 0.1235 µM	0.928
HS729, 0.3704 µM	0.875
HS729, 1.111 µM	0.89
HS729, 3.333 µM	0.87
HS729, 10 µM	0.869
KHOS-240S, 0.00017 µM	1.08
KHOS-240S, 0.00051 µM	1.07
KHOS-240S, 0.00152 µM	1.08
KHOS-240S, 0.00457 µM	1.1
KHOS-240S, 0.01372 µM	1.06
KHOS-240S, 0.04115 µM	1.08
KHOS-240S, 0.1235 µM	1.04
KHOS-240S, 0.3704 µM	1.05
KHOS-240S, 1.111 µM	1
KHOS-240S, 3.333 µM	0.891
KHOS-240S, 10 µM	0.784
MES-SA, 0.00017 µM	0.899
MES-SA, 0.00051 µM	0.909
MES-SA, 0.00152 µM	0.914
MES-SA, 0.00457 µM	0.908
MES-SA, 0.01372 µM	0.896
MES-SA, 0.04115 µM	0.884
MES-SA, 0.1235 µM	0.868
MES-SA, 0.3704 µM	0.853
MES-SA, 1.111 µM	0.817
MES-SA, 3.333 µM	0.6876
MES-SA, 10 µM	0.598
RD, 0.00017 µM	1.13
RD, 0.00051 µM	1.06
RD, 0.00152 µM	1.08
RD, 0.00457 µM	1.12
RD, 0.01372 µM	1.09
RD, 0.04115 µM	1.05
RD, 0.1235 µM	1.04
RD, 0.3704 µM	1.06
RD, 1.111 µM	0.995
RD, 3.333 µM	0.915
RD, 10 µM	0.87
SK-ES-1, 0.00017 µM	1.03
SK-ES-1, 0.00051 µM	1.04
SK-ES-1, 0.00152 µM	1.06
SK-ES-1, 0.00457 µM	1.02
SK-ES-1, 0.01372 µM	1.04
SK-ES-1, 0.04115 µM	0.989
SK-ES-1, 0.1235 µM	0.837
SK-ES-1, 0.3704 µM	0.761
SK-ES-1, 1.111 µM	0.659
SK-ES-1, 3.333 µM	0.466
SK-ES-1, 10 µM	0.427
SK-LMS-1, 0.00017 µM	1.05
SK-LMS-1, 0.00051 µM	1.05
SK-LMS-1, 0.00152 µM	1.12
SK-LMS-1, 0.00457 µM	1.08
SK-LMS-1, 0.01372 µM	1.09
SK-LMS-1, 0.04115 µM	1.11
SK-LMS-1, 0.1235 µM	1.06
SK-LMS-1, 0.3704 µM	1.01
SK-LMS-1, 1.111 µM	0.99
SK-LMS-1, 3.333 µM	0.952
SK-LMS-1, 10 µM	0.9041
SW872, 0.00017 µM	1.03
SW872, 0.00051 µM	1.01
SW872, 0.00152 µM	1.02
SW872, 0.00457 µM	1.02
SW872, 0.01372 µM	1.02
SW872, 0.04115 µM	0.996
SW872, 0.1235 µM	0.959
SW872, 0.3704 µM	0.938
SW872, 1.111 µM	0.946
SW872, 3.333 µM	0.818
SW872, 10 µM	0.713
SW982, 0.00017 µM	1.03
SW982, 0.00051 µM	1.03
SW982, 0.00152 µM	1.04
SW982, 0.00457 µM	1.0148
SW982, 0.01372 µM	1.05
SW982, 0.04115 µM	1.02
SW982, 0.1235 µM	0.992
SW982, 0.3704 µM	1.02
SW982, 1.111 µM	0.993
SW982, 3.333 µM	0.788
SW982, 10 µM	0.66
SW1353, 0.00017 µM	1.01
SW1353, 0.00051 µM	1
SW1353, 0.00152 µM	0.974
SW1353, 0.00457 µM	0.985
SW1353, 0.01372 µM	0.992
SW1353, 0.04115 µM	0.961
SW1353, 0.1235 µM	0.921
SW1353, 0.3704 µM	0.918
SW1353, 1.111 µM	0.901
SW1353, 3.333 µM	0.802
SW1353, 10 µM	0.858
VA-ES-BJ, 0.00017 µM	1.03
VA-ES-BJ, 0.00051 µM	1.04
VA-ES-BJ, 0.00152 µM	1.01
VA-ES-BJ, 0.00457 µM	0.995
VA-ES-BJ, 0.01372 µM	0.988
VA-ES-BJ, 0.04115 µM	0.985
VA-ES-BJ, 0.1235 µM	0.931
VA-ES-BJ, 0.3704 µM	0.869
VA-ES-BJ, 1.111 µM	0.872
VA-ES-BJ, 3.333 µM	0.712
VA-ES-BJ, 10 µM	0.597
